Several values for one entry are separate records, joined by “and”; a condition that tells them apart may be missing. Equal values may be shown once.
Experiments:
[1] = target: Muscarinic acetylcholine receptor; assay: The compound was tested for binding affinity against muscarinic acetylcholine receptor using QNB as radioligand; assay type: protein assay
[2] = target: T1, Alpha-1A adrenergic receptor (Homo sapiens, UniProt P35348); assay: The compound was tested for binding affinity against Alpha-1 adrenergic receptor using WB-4101 as radioligand
T1 sequence (P35348 whole entry): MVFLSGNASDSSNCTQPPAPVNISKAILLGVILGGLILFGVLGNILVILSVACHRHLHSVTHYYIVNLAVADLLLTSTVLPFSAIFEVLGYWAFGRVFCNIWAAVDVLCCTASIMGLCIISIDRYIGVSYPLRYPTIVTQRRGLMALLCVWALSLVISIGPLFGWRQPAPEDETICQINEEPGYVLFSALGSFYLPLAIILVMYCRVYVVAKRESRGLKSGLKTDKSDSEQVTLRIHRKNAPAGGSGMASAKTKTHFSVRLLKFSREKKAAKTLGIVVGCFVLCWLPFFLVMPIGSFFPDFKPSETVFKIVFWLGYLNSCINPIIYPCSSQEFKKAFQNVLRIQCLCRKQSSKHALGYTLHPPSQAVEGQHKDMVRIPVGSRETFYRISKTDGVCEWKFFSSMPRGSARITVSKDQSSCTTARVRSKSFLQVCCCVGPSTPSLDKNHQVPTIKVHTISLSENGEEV

[3] = target: T2, D(2) dopamine receptor (Homo sapiens, UniProt P14416); assay: The compound was tested for binding affinity against dopamine receptor D2 using raclopride as radioligand
T2 sequence (P14416 whole entry): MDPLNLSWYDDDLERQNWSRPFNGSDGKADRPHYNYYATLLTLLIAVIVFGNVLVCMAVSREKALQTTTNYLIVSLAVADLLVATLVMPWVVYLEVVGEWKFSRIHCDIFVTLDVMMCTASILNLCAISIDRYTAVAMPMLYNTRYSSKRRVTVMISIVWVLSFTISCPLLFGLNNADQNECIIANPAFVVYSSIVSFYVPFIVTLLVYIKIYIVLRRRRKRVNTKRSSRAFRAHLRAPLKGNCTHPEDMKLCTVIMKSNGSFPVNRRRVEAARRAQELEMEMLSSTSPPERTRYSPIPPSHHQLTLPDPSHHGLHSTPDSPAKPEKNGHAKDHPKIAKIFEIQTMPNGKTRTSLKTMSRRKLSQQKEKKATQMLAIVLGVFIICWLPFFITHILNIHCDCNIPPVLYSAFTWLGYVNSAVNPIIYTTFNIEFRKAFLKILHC

[4] = target: T3, D(1A) dopamine receptor (Homo sapiens, UniProt P21728); assay: Binding affinity determined in radioreceptor binding assay by using [3H]SCH-23390 radioligand against dopamine receptor D1
T3 sequence (P21728 whole entry): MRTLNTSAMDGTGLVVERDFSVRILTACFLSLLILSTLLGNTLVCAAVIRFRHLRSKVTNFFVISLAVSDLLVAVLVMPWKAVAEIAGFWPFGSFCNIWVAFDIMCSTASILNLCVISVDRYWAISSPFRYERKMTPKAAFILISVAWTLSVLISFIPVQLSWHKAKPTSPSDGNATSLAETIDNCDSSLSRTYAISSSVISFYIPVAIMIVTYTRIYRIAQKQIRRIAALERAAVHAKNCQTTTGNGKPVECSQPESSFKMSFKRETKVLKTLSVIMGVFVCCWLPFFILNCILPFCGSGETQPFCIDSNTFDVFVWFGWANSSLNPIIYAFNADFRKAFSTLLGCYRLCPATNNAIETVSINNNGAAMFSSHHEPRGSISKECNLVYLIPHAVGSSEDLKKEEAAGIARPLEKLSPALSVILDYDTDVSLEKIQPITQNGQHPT

[5] = target: T4, Sigma non-opioid intracellular receptor 1 (Homo sapiens, UniProt Q99720); assay: The compound was tested for binding affinity against sigma receptor using DTG as radioligand
T4 sequence (Q99720 whole entry): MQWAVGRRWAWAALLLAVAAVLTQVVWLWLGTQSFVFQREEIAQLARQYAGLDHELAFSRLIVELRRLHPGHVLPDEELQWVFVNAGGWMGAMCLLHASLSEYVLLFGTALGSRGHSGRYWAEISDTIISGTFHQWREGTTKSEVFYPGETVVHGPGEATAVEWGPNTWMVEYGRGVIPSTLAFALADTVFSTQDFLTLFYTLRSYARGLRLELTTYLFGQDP

[6] = target: Serotonin 2 (5-HT2) receptor (Homo sapiens, UniProt P41595+P28223+P28335); assay: The compound was tested for binding affinity against 5-hydroxytryptamine 2 receptor using ketanserin as radioligand; assay type: protein assay
[7] = target: Muscarinic acetylcholine receptor; assay: The compound was tested for binding affinity against Muscarinic acetylcholine receptor using QNB as radioligand; assay type: protein assay
[8] = target: T2, D(2) dopamine receptor; assay: The compound was tested for binding affinity against Dopamine receptor D2 using raclopride as radioligand
[9] = target: T4, Sigma non-opioid intracellular receptor 1; assay: The compound was tested for binding affinity against Sigma opioid receptor using DTG as radioligand
[10] = target: T3, D(1A) dopamine receptor; assay: The compound was tested for binding affinity against Dopamine receptor D1 using SCH-23390 as radioligand

Structure (SMILES)	Ki [1]	Ki [2] [nM]	Ki [3] [nM]	Ki [4] [nM]	Ki [5]	Ki [6] [nM]	Ki [7] [nM]	Ki [8] [nM]	Ki [9] [nM]	Ki [10] [nM]
CN(C)C1C=CC2(CC1)c1ccccc1C=Cc1ccc(Cl)cc12 (centres undefined)	4.3 nM	36	0.66	0.3	1600 nM	1	–	–	–	–
CN(C)C1C=CC2(CC1)c1ccccc1CCc1ccc(Cl)cc12 (centres undefined)	94 nM and 43 nM	–	–	–	550 nM and 1400 nM	–	–	–	–	–
CN(C)C1C=CC2(CC1)c1ccccc1C=Cc1ccc(Cl)cc12 (single isomer, unassigned; enantiomer 2)	–	61	–	–	–	1.3	7.2	6.5	800	3.1
